# Results taken from patent US9763961B2, “Compositions that modulate the activity of estrogen receptors and estrogen-related receptors and methods for use” (CITY OF HOPE, priority 2005, dated 2017).
# What was measured:
# [1] = test system: aromatase in SK-BR-3 cells; assay: In-cell aromatase assay in SK-BR-3 cells; assay type: cell-based; settings: 24 h, FIG. 6D
# Experimental: (§1) To evaluate the effect of chalcones on aromatase activity, we performed both in vitro assay and in-cell assay with chalcones. […] In addition, MCF-7 aro cells, which are stable aromatase-expressing breast cancer cell line, were incubated with chalcones.
# (§2) Referring to FIG. 6, the effect of Compound No. 1-9 on aromatase activity was investigated by both in vitro inhibition assay (A) and in-cell aromatase assay (B; MCF-7 aro cells, C; HepG2 cells, D; SK-BR-3 cells). Referring to FIG. 6A, aromatase inhibition study with Compound No. 1-9 was performed on a human placental microsomal aromatase preparation using the assay procedures described in (9). Referring to FIG. 6B, MCF-7 aro cells, which are stable aromatase-expressing cell line generated in our laboratory (10), were incubated with 10 μM of Compound No. 1-9. After 24 h incubation, aromatase activity was measured by [3H] H20 release method. HepG2 cells, as shown in FIG. 6C and SK-BR-3 cells as shown in FIG. 6D were also incubated with Compound No. 1-9 for 24 h, and aromatase activities were measured. Values represent the mean±SD.
# aromatase in HepG2 cells = assay: In-cell aromatase assay in HepG2 cells; assay type: cell-based; settings: 24 h, FIG. 6C
# Experimental: as §1, §2
# [2] = test system: ERRα with coactivators GRIP-1 and PGC-1a; assay: Coactivator (GRIP-1, PGC-1a)-induced ERRα activity, Gal4-TK-Luc cotransfection in HeLa cells; assay type: cell-based; settings: GRIP-1 and PGC-1a cotransfection, FIG. 3
# From the text: To further confirm the antagonism of chalcones, the effect of Compound No. 1-9 on the interaction between ERRα and coactivators (GRIP-1 and PGC-1a) were investigated. HeLa cells were cotransfected with GAL4-binding site containing luciferase reporter and the expression plasmids for ERRα, GRIP-1 and PGC-1a. The ERRα activity was induced 5-fold and 13-fold by cotransfection with GRIP-1 and PGC-1 a, respectively.
# Referring to FIG. 3, cotransfection experiments with GAL4-binding site containing luciferase reporter (Gal4-TK-Luc; 0.5 μg) and the expression plasmids for ERRα (pM-ERRα LBD; 0.5 μg), GRIP-1 (pSG5-GRIP-1; 0.5 μg) and PGC-1a(pSG5-PGC-1α; 0.25 μg) were performed in HeLa cells. Values represent the mean±SD.
# [3] = biological target: T1, human placental microsomal aromatase (Homo sapiens, UniProt P11511); assay: In vitro aromatase inhibition assay on human placental microsomal aromatase preparation; assay type: biochemical; settings: increasing concentrations (200 pM-200 mM), FIG. 6A
# T1 construct: performed on a human placental microsomal aromatase preparation; from tissue; host or cells: human placenta, microsomes
# T1 sequence (P11511 1-503): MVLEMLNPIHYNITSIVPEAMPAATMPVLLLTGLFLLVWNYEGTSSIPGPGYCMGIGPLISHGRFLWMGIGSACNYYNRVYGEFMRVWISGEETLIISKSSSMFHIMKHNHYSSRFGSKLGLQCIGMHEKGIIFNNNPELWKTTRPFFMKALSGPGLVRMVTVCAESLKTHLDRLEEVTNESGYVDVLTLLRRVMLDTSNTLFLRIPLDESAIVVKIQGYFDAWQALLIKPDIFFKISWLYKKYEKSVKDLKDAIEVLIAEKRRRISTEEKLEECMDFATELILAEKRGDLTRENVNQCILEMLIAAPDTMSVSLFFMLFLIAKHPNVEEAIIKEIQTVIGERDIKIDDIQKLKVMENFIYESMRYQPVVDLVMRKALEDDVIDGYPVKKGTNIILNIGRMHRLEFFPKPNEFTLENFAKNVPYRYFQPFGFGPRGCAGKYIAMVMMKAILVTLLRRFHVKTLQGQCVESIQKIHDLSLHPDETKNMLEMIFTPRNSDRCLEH
# Experimental: as §1, §2
# ERRα = biological target: T2, ERRα (Homo sapiens, UniProt P11474); assay: Transient transfection assays, relative luciferase activity for ERRα (FIG. 7); assay type: cell-based
# T2 sequence (P11474 1-423): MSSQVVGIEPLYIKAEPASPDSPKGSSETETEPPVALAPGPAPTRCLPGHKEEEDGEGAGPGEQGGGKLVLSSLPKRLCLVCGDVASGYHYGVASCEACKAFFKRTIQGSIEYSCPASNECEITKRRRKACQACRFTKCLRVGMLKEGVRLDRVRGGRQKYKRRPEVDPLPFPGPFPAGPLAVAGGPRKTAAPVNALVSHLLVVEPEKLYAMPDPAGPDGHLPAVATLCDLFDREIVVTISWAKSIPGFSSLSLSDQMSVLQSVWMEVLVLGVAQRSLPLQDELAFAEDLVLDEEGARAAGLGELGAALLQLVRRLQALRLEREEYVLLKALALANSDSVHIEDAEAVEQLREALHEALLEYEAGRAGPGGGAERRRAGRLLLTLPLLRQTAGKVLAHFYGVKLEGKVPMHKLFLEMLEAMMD
# Experimental: HeLa cells were cultured in MEM Earle's salts medium supplemented with 5% charcoal/dextran-treated fetal bovine serum. Cells were then divided and cultured in 6-well plates until 80% confluence was achieved. The cells were next transfected with 4 μg Lipofectin. An equal amount of total DNA was used in all transfections by including appropriate amounts of the empty vector, pSG5, in addition to specific amounts of pSG5-ERRα and luciferase reporter plasmids (ERRE (ERRα recognizes an ERE half site)-containing reporter and aromatase promoter I.3-containing reporter). Following an overnight incubation, the medium containing Lipofectin and DNA was removed, and the cells cultured in a growth medium containing 5% charcoal/dextran-treated fetal bovine serum with or without ligands. After a 24-hour incubation, the cells was harvested from the plates by scraping, and the luciferase activities in the cell lysates (with the same amounts of protein) was measured according to the manufacturer's instructions (Promega). All experiments were performed in triplicate.
# Referring to FIG. 2, we have also prepared GAL4-ERRα expression plasmid and luciferase reporter plasmids with GAL4 response element. This is a more sensitive assay method than that using pSG5-ERRα and ERE luciferase reporter plasmids.
# The 2-methoxyl group may be important for the antagonistic activity of the chalcone. […]
compound,measurement,setting,value
"COc1cccc(/C=C/C(=O)c2ccc(O)cc2O)c1OC [Compound No. 1-9, 2′,4′-Dihydroxy-2,3-dimethoxychalcone]","Effect on aromatase activity, SK-BR-3 cells",[1],inhibited aromatase activity in a dose-dependent manner
same,"Effect on aromatase activity, HepG2 cells",aromatase in HepG2 cells,inhibited aromatase activity in a dose-dependent manner
same,Effect on coactivator-induced ERRα activity,[2],suppressed the coactivator-induced ERRα activity in a dose-dependent manner
same,"Effect on aromatase activity, in vitro assay",[3],did not inhibit aromatase activity
same,Effect on constitutive activity of ERRα (relative luciferase activity),"ERRα; compared to DMSO control, FIG. 7",can suppress the constitutive activity of ERRα
same,IC50,ERRα; read-out: IC50 values through transient transfection assays,700 to 2000 nM
